This note sets out measurements from the Deep4Chem optical property database.

A short description of the data set: solvent given as SMILES.

Molecules are shown by their SMILES.

With `Fc1ccc(N(c2ccc(F)cc2)c2ccc3c4cccc5c(N(c6ccc(F)cc6)c6ccc(F)cc6)ccc(c6cccc2c63)c54)cc1`, the emission maximum by setting is: (in C1CCCCC1) 529 nm; (in C1CCOC1) 544 nm; (in CC#N) 548 nm; (in Cc1ccccc1) 540 nm; (in ClCCl) 546 nm.
`BrCCCCCCCCCCCCOc1cc2ccc3cccc4ccc(c1)c2c34`: for the setting “in Cc1ccccc1”, the emission maximum came out at 384 nm.
`CN(C)c1ccc(/C=C/c2ncccn2)cc1`: under “in ClCCl”, the emission maximum worked out at 472 nm.
On the same count and under the same terms, the same measure for `CCCCC1C(=O)c2cc(Oc3ccc(C(C)(C)C)cc3)c3c4c(Oc5ccc(C(C)(C)C)cc5)cc5c6c(cc(Oc7ccc(C(C)(C)C)cc7)c(c7c(Oc8ccc(C(C)(C)C)cc8)cc(c2c37)C1=O)c64)C1=C(C5=O)c2ccc3ccccc3[n+]2[B-](F)(F)O1` (stereo unspecified): 655 nm; for `CC(C)(C)OC(=O)CN1CCN(c2ccc3c(-c4ccc(I)cc4)c4ccc(=[N+]5CCN(CC(=O)OC(C)(C)C)CC5)cc-4oc3c2)CC1`: 586 nm.
As for `F[B-]1(F)Oc2ccccc2-c2nc(-c3ccccc3)c3cc(Cl)ccc3[n+]21`, where the note is “in Cc1ccccc1”, the emission maximum turned out to be 542 nm.
In the case of `F[B-]1(F)n2c(cc(Br)c2Br)C(c2ccccc2)=C2C=C(Br)C(Br)=[N+]21`, the emission maximum (in ClC(Cl)Cl) amounted to 570 nm.
Under “in CCCCCC”, `CC(C)[Si](C#Cc1c2cc3ccccc3cc2c(C#C[Si](C(C)C)(C(C)C)C(C)C)c2nc3c(ccc4ccccc43)nc12)(C(C)C)C(C)C` returned an emission maximum of 661 nm.
Consider `CCCCn1c(-c2ccc(-c3nnc(-c4cccs4)o3)cc2)nc(-c2ccccc2)c1-c1ccccc1`, for which the emission maximum (in ClCCl) is 444 nm.
In turn, `CCCCn1c(-c2ccc(-c3nnc(-c4ccccc4)o3)cc2)nc2c3ccccc3c3ccccc3c21` gave an emission maximum (in ClCCl) of 446 nm.
In the case of `CC1=CC(C)=[N+]2C1=C(c1c(-c3ccccn3)nc3ccccn13)c1c(C)cc(C)n1[B-]2(F)F`, where the note is “in ClCCl”, the emission maximum stood at 536 nm.
With `CC1(C)CC(/C=C/c2ccc(-n3c4ccccc4c4ccccc43)cc2)=CC(=C(C#N)C#N)C1`, the emission maximum is 571 nm (in C1CCOC1); 600 nm (in CC#N); 583 nm (in CCO); 565 nm (in CCOC(C)=O); 582 nm (in ClCCl); 534 nm (in c1ccccc1).
`Cc1cc(C)c([B-]2(c3c(C)cc(C)cc3C)[O+]=P(c3ccccc3)(c3ccccc3)c3cc(-c4ccc(C(F)(F)F)cc4)sc3-c3sc(-c4ccc(C(F)(F)F)cc4)cc32)c(C)c1` returned an emission maximum (in C1CCOC1) of 468 nm.
Where the note is “in CCCCCC”, `CC(C)[Si](C#Cc1c2cc3ccccc3cc2c(C#C[Si](C(C)C)(C(C)C)C(C)C)c2nc3c(nc12)C1c2ccccc2C3c2ccccc21)(C(C)C)C(C)C` came in with an emission maximum of 548 nm.
Consider `O=c1oc2ccccc2c2c1c(=O)oc1cc(O)c3ccccc3c12`, for which the emission maximum (in ClCCl) amounted to 529 nm.
Take `Cc1ccc2c(c1)C(=O)c1ccncc1-2`: the emission maximum (in CC#N) worked out at 536.75 nm and the emission maximum (in CCCCCC) worked out at 487.83 nm.
Consider `COC(=O)c1cc(=O)n(C)c2cc(-c3cc4c5c(c3)CCCN5CCC4)sc12`, for which the emission maximum is, setting by setting: (in C1CCOC1) 502 nm; (in CC#N) 511 nm; (in CCO) 508 nm; (in CN(C)C=O) 509 nm; (in CO) 493 nm; (in CS(C)=O) 508 nm. In addition, the emission maximum runs as follows: (in Cc1ccccc1) 529 nm; (in ClC(Cl)Cl) 580 nm; (in ClCCl) 605 nm.
Consider `CCc1ccc(-n2c3ccccc3c3cc4c(cc32)c2ccccc2n4-c2ccc(CC)cc2)cc1`, for which, where the note is “in ClC(Cl)Cl”, the emission maximum was 415 nm.
Compound `C(=C\c1cnc2ccccc2n1)/c1ccc(N(c2ccccc2)c2ccccc2)cc1` returned an emission maximum (in C1CCOC1) of 535 nm; an emission maximum (in CC#N) of 596 nm; an emission maximum (in CCCCCCC) of 461 nm; an emission maximum (in CS(C)=O) of 598 nm; an emission maximum (in ClCCl) of 565 nm.
Turning to `CC(C)(C)c1cccc2c(O)cccc12`, the emission maximum (in O) was 367 nm.
The compound `Cc1ccc(-n2c3ccc(-c4ccc(-c5nc6ccccc6n5-c5ccccc5)cc4)cc3c3cc(-c4ccc(-c5nc6ccccc6n5-c5ccccc5)cc4)ccc32)cc1` showed an emission maximum (in ClC(Cl)Cl) of 410 nm.
Consider `CCC1=[N+]2c3c(c4ccc(Oc5c(C)cc(C)cc5C)c5cc6c(Oc7c(C)cc(C)cc7C)ccc7c8cc(CC)n(c8c3c(c54)c67)[B-]2(F)F)=C1`, for which, under “in Cc1ccccc1”, the emission maximum stood at 924 nm.
Compound `CC(C)(C)NC(=O)c1cccc2ccc3c4ccccc4c4ccccc4c3c12` had an emission maximum (in ClCCl) of 403 nm.
Regarding `CCc1ccc(/C=C/c2ccc(-c3nnc(-c4ccc(-c5cc6ccccc6s5)cc4)o3)cc2)cc1`, the emission maximum (in CC#N) is recorded as 421 nm; the emission maximum (in CC(C)=O) amounted to 420 nm; the emission maximum (in CCCCCCCC) is given as 389 nm; the emission maximum (in CCCCCCCCCCO) was 420 nm; the emission maximum (in CCCCCCCCO) was 421 nm; the emission maximum (in CCCCCO) is reported as 421 nm. The compound further returned an emission maximum (in CCCO) of 422 nm, an emission maximum (in CN(C)C=O) of 429 nm, an emission maximum (in CO) of 426 nm and an emission maximum (in CS(C)=O) of 433 nm.
With `CC(C)(C)OC(=O)/C=C/C1=CC2=C(c3ccccc3)c3cccn3[B-](F)(F)[N+]2=C1`, the emission maximum (in ClCCl) is recorded as 575 nm.
Turning to `COC(=O)c1ccc(NC(=O)c2ccc(N(C)C)cc2)cc1`, the emission maximum is 434 nm (in C1CCCCC1), 470 nm (in C1CCOC1), 516 nm (in CC#N) and 456 nm (in CCOCC).
Compound `CCn1c2ccsc2c2c3nsnc3c3c4sccc4n(CC)c3c21` gave an emission maximum (in C1CCOC1) of 539 nm; an emission maximum (in CCOC(C)=O) of 538 nm; an emission maximum (in CN(C)C=O) of 573 nm; an emission maximum (in Cc1ccccc1) of 523 nm; an emission maximum (in ClCCl) of 565 nm.
On to `CCCCN1c2ccccc2Sc2cc(/C=C/C3=Nc4ccc5ccccc5c4C3(C)C)ccc21`, for which the emission maximum is, setting by setting: (in C1CCCCC1) 517 nm; (in C1CCOC1) 571 nm; (in C1COCCO1) 562 nm; (in CC#N) 610 nm; (in CC(C)=O) 598 nm; (in CC(C)O) 602 nm. Further, the emission maximum was 564 nm (in CCOC(C)=O); 546 nm (in CCOCC); 635 nm (in CO); 612 nm (in CS(C)=O); 550 nm (in Cc1ccccc1); 595 nm (in ClCCl).
In the case of `CCCCCCCCn1nnc(-c2ccc(C#Cc3ccc(C#Cc4ccc(-c5nnn(CCCCCCCC)n5)cc4)c4nc5c6ccccc6c6ccccc6c5nc34)cc2)n1`, the emission maximum is on record as 495 nm (in C1CCOC1), 488 nm (in Cc1ccccc1) and 502 nm (in ClCCl).
Take `COc1cc2cc(-c3cc4cc(OC)c(OC)cc4oc3=O)oc2cc1OC`: the emission maximum is, setting by setting: (in CC#N) 493 nm; (in CCOC(C)=O) 478 nm; (in CS(C)=O) 500 nm; (in Cc1ccccc1) 475 nm; (in O) 435 nm.
Take `O=C1c2cccc3c(C#CC#Cc4ccc5c6c(cccc46)C(=O)N(c4ccccc4)C5=O)ccc(c23)C(=O)N1c1ccccc1`: for the setting “in ClCCl”, the emission maximum amounted to 440 nm.
